Consider 6 compounds from PubChem BioAssay (NCI).

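Five compound concentrations were applied to cells in 96-well plates for 48 hours; endpoints were derived by simple linear interpolation of the resulting dose-response curve. Abbreviation: GI50, concentration required for 50% inhibition of growth. At the TGI there is no net growth.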 A value given as a limit tells only on which side of the number the result lay.

Holding throughout (test): NCI tumour cell line growth inhibition, 48 h
Assay [1] deals with ACHN renal.
The subject of assay [2] is SK-MEL-28 melanoma.
In assay [3] the test system is EKVX NSCLC.
Assay [4] deals with OVCAR-5 ovarian.
Assay [5] relates to KM12 colon.
The test system of assay [6] is HL-60(TB) leukemia.
Assay [7] relates to PC-3 prostate.
In assay [8] the test system is NCI-H226 lung.
Assay [9] concerns SF-295 CNS.
Assay [10] deals with HCC-2998 colon.

As for `CCOCCOC[C@H]1CCCN(c2ccnc3sc(C(N)=O)c(N)c23)C1`, the GI50 is 9950 nM in assay [1]; 23.5 µM in [2]; 27.9 µM in assay [3]; over 100 µM in assay [4]; 36600 nM in assay [5]; 48700 nM in [6]. The GI50 is 21.7 µM in [7], over 100 µM in assay [8], 10.4 µM in assay [9] and over 100000 nM in assay [10]. The TGI in assay [1], in assay [2], in [3], in [4], in [5] and in [6] was over 100 µM each time. For the same compound, the TGI in assay [7], in assay [8], in assay [9] and in assay [10] was over 100 µM throughout.

Turning to `Cc1nc2sc(C(=O)Nc3cccc(Br)c3)c(N)c2cc1C(O)c1ccccc1` (centres undefined), the GI50 is 768 nM in assay [1]; 4.61 µM in assay [2]; 1.2 µM in [3]; 3.09 µM in assay [4]; 689 nM in assay [5]; 395 nM in assay [6]. The GI50 was 2.89 µM in assay [7], 2 µM in assay [8], 0.765 µM in assay [9] and 2400 nM in assay [10]. Moreover, the TGI in assay [1] was determined as 14.7 µM; in [2] it was 23.7 µM; in assay [3] it was 21 µM; in assay [4] it was 20.1 µM; in assay [5], 12.6 µM; in assay [6] it was 1.6 µM. Also, the TGI in [7] is 31 µM; in [8], 24.3 µM; in [9] it was 12.1 µM; in assay [10], 12.1 µM.

With `COc1ccc(C2CC(=O)c3c(O)c(OC)c(OC)c(OC)c3O2)cc1O` (centres undefined), the GI50 in [1] is 572 nM; in assay [2] it was 14.4 µM; in [3], 0.53 µM; in assay [4], over 100 µM; in assay [5] it was 58.5 nM; in assay [6], 26.3 nM. The GI50 is 0.0642 µM in assay [7], 14.1 µM in assay [8], 0.374 µM in assay [9] and 999 nM in assay [10]. The TGI in assay [1], in assay [2], in [3], in assay [4], in assay [5] and in assay [7] was over 100 µM each time. Also, the TGI in [8], in assay [9] and in [10] was over 100 µM each time.

As for `Nc1nc(-c2ccc(Cl)cc2)cc(-c2ccccc2)c1-c1nc2ccccc2o1`, the GI50 is 8800 nM in assay [1]; 15.2 µM in [2]; 12.4 µM in [3]; 19.8 µM in [4]; 2650 nM in assay [5]; 3470 nM in assay [6]. Moreover, the GI50 in assay [7] is 4.62 µM; in assay [8] it was 15.1 µM; in assay [9], 15 µM; in assay [10] it was 8390 nM. Moreover, the TGI in [1] amounted to 23.3 µM; in assay [2], 34 µM; in assay [3] it was 28 µM; in assay [4] it was 54.7 µM; in assay [5], 8.17 µM; in assay [6], 9.23 µM. Further, the TGI in [7] was determined as 16.8 µM; in assay [8], 31.3 µM; in assay [9], 35.6 µM; in [10], 34 µM.

As for `Cc1cc2nc(C(Cl)Cl)nc(-c3ccccc3)n2n1`, the GI50 in assay [1] was 1870 nM; in [2] it was 3.54 µM; in assay [3], 3.72 µM; in assay [4] it was 3.3 µM; in assay [5], 1780 nM; in [6], 2380 nM. Further, the GI50 in [7] is 4.77 µM; in assay [8], over 100 µM; in assay [9] it was 3.48 µM; in [10], 1790 nM. Moreover, the TGI was determined as 5.12 µM in assay [1]; 13.1 µM in assay [2]; 20.3 µM in assay [3]; 17.1 µM in [4]; 4.86 µM in assay [5]; 6.35 µM in assay [6]. Further, the TGI in assay [7] is 37.9 µM; in [8], over 100 µM; in [9], 15.9 µM; in [10] it was 3.49 µM.

Regarding `C=C(CN(C)C)C(=O)c1ccc(Oc2ccccc2)cc1`, the TGI in assay [1] is 5.08 µM; in assay [2], 17.4 µM; in assay [3], 44 µM; in [4], 18.6 µM; in [5], 29.8 µM; in assay [6] it was 3.46 µM. The TGI in [7] was 11.6 µM; in [8] it was 34.3 µM; in assay [9] it was 38.3 µM; in assay [10], 32.3 µM.
